Drawing on patent publication US20260285853A1, “COMPOUNDS AND METHODS FOR MODULATING SPLICING” (REMIX THERAPEUTICS INC., priority 2023, published 2026), this text covers GI50, AC50 and IC50 for 15 compounds.

Molecules are shown by their SMILES.

Assay type in all cases: cell-based
For assay [1], the system named is SH-SY5Y (human neuroblastoma) cells. The assay can be described thus: Cell viability, Cell Titer Glo 2.0 assay. Conditions: read-out: Viability SHSY5Y.3 GI50. The procedure, abridged: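 Steps: serial DMSO dilution of compound, 1:100 dilution into medium, addition to cells (0.1% DMSO final). Incubate 72 h at 37 °C, 5% CO2. Assay with CellTiter-Glo 2.0 reagent.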

For assay [2], the system named is MYB mRNA. The assay can be described thus: Splicing RT-qPCR assay (THP), Table 2A. The following applies: Table 2A, THP; for AC50: MYB alternative junction (AJ) mRNA, read-out: MYB AJ (AC50, increase in alternative junction mRNA); for IC50: MYB canonical junction (CJ) mRNA, read-out: MYB CJ (IC50, decrease in canonical junction mRNA).
In assay [3] the test system is HTT mRNA. The assay can be described thus: Splicing RT-qPCR assay (THP), Table 2A. The following applies: Table 2A, THP; for AC50: HTT alternative junction (AJ) mRNA, read-out: HTT AJ (AC50, increase in alternative junction mRNA); for IC50: HTT canonical junction (CJ) mRNA, read-out: HTT CJ (IC50, decrease in canonical junction mRNA).
Assay [4] deals with MYB mRNA. Description: Gene panel canonical junction qPCR assay, decrease in CJ mRNA, Table 3. Conditions: decrease in CJ mRNA levels, canonical junction qPCR, gene panel. A digest of the protocol: (§1)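 IC50 is the concentration giving 50% response in decrease of the canonical junction transcript, fitted with a 4-parameter logistic equation. Transcripts were quantified by RT-qPCR in A673 or K562 cells after 24 h exposure to compounds dosed up to 10 uM in 3-fold steps.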

Assay [5] deals with HTT mRNA. The assay is described as above. The following applies: decrease in CJ mRNA levels, canonical junction qPCR, gene panel. The procedure, abridged: as §1

With `Cc1cn2cc(NC(=O)c3ccc(N4C[C@@H](C)N[C@@H](C)C4)c4c3OCO4)cc(F)c2n1` [Compound 643, 7-[(3S,5R)-3,5-dimethylpiperazin-1-yl]-N-(8-fluoro-2-methyl-imidazo[1,2-a]pyridin-6-yl)-1,3-benzodioxole-4-carboxamide], the GI50 in assay [1] was in the range of 1 to 10 µM. The AC50 with MYB mRNA [2] lay in the range of 0.1 to 1 µM; with HTT mRNA [3], 1 to 10 µM. Moreover, the IC50 lay in the range of 0.1 to 1 µM in the assay on MYB mRNA [2], 1 to 10 µM in the assay with HTT mRNA [3], 0.1 to 1 µM with MYB mRNA [4] and 1 to 10 µM with HTT mRNA [5].
For the compound `Cc1cn2cc(NC(=O)c3ccc(N4CCC(NC5CC5)CC4)c4c3OCO4)cc(F)c2n1` [Compound 648, 7-[4-(cyclopropylamino)-1-piperidyl]-N-(8-fluoro-2-methyl-imidazo[1,2-a]pyridin-6-yl)-1,3-benzodioxole-4-carboxamide], the GI50 in assay [1] is over 10 µM. For the same compound, the AC50 in the assay with MYB mRNA [2] is 1 to 10 µM; in the assay with HTT mRNA [3], over 10 µM. Also, the IC50 is 1 to 10 µM with MYB mRNA [2], over 10 µM in the assay with HTT mRNA [3], 1 to 10 µM in the assay with MYB mRNA [4] and over 10 µM with HTT mRNA [5].
In the case of `Cc1cn2cc(NC(=O)c3ccc(N4CCC(NC5CC5)C4)c4c3OCO4)cc(F)c2n1` (stereo not drawn) [Compound 649, 7-[3-(cyclopropylamino)-pyrrolidin-1-yl]-N-(8-fluoro-2-methyl-imidazo[1,2-a]pyridin-6-yl)-1,3-benzodioxole-4-carboxamide], in assay [1], the 50% growth inhibitory concentration (GI50) was in the range of 1 to 10 µM. The AC50 in the assay on MYB mRNA [2] was 0.1 to 1 µM; in the assay on HTT mRNA [3] it was over 10 µM. The IC50 with MYB mRNA [2] is 1 to 10 µM; in the assay on HTT mRNA [3] it was over 10 µM; with MYB mRNA [4] it was 1 to 10 µM; in the assay with HTT mRNA [5] it was over 10 µM.
As for `COc1c(NC(=O)c2ccc(N3CCC(NC4CC4)CC3)c3c2OCO3)cn2cc(C)nc2c1F` [Compound 650, 7-[4-(cyclopropylamino)-1-piperidyl]-N-(8-fluoro-7-methoxy-2-methyl-imidazo[1,2-a]pyridin-6-yl)-1,3-benzodioxole-4-carboxamide], the GI50 in assay [1] was 0.1 to 1 µM. Also, the AC50 in the assay on MYB mRNA [2] is under 0.1 µM; in the assay on HTT mRNA [3] it was 0.1 to 1 µM. Further, the IC50 with MYB mRNA [2], in the assay with HTT mRNA [3], in the assay with MYB mRNA [4] and in the assay with HTT mRNA [5] was under 0.1 µM each time.
In the case of `Cc1cn2cc(NC(=O)c3ccc(N4C[C@@H](C)N[C@@H](C)C4)c4c3OC(F)(F)O4)cc(F)c2n1` [Compound 651, 7-[(3R,5S)-3,5-dimethylpiperazin-1-yl]-2,2-difluoro-N-(8-fluoro-2-methylimidazo[1,2-a]-pyridin-6-yl)-1,3-benzodioxole-4-carboxamide], in assay [1], the GI50 was over 10 µM. The AC50 with MYB mRNA [2] and in the assay with HTT mRNA [3] was over 10 µM each time. For the same compound, the half-inhibitory concentration (IC50) with MYB mRNA [2], in the assay on HTT mRNA [3], in the assay with MYB mRNA [4] and with HTT mRNA [5] was over 10 µM throughout.
As for `Cc1cn2cc(NC(=O)c3ccc(N4C[C@@H](C)N[C@@H](C)C4)c4c3OC(C)(C)O4)cc(F)c2n1` [Compound 656, 7-[(3S,5R)-3,5-dimethylpiperazin-1-yl]-N-(8-fluoro-2-methyl-imidazo[1,2-a]-pyridin-6-yl)-2,2-dimethyl-1,3-benzodioxole-4-carboxamide], the concentration for 50% growth inhibition (GI50) in assay [1] is over 10 µM. Moreover, the AC50 with MYB mRNA [2] and with HTT mRNA [3] was over 10 µM each time. Further, the 50% inhibitory concentration (IC50) in the assay with MYB mRNA [2], with HTT mRNA [3], with MYB mRNA [4] and in the assay with HTT mRNA [5] was over 10 µM throughout.
`COc1cc2nn(C)cc2cc1NC(=O)c1c(F)cc(N2CCC(NC3CC3)CC2)c2nc(C)sc12` [Compound 661, 4-[4-(cyclopropyl-amino)-1-piperidyl]-6-fluoro-N-(6-methoxy-2-methyl-indazol-5-yl)-2-methyl-1,3-benzothiazole-7-carboxamide]: the GI50 in assay [1] is 1 to 10 µM. The AC50 in the assay on MYB mRNA [2] and in the assay with HTT mRNA [3] was 1 to 10 µM in each case. The IC50 in the assay with MYB mRNA [2], in the assay with HTT mRNA [3], with MYB mRNA [4] and in the assay with HTT mRNA [5] was 1 to 10 µM in each case.
For `Cc1cn2cc(NC(=O)c3c(F)cc(N4CCC(NC5CC5)CC4)c4nc(C)sc34)cc(F)c2n1` [Compound 662, 4-[4-(cyclopropyl-amino)-1-piperidyl]-6-fluoro-N-(8-fluoro-2-methyl-imidazo[1,2-a]pyridin-6-yl)-2-methyl-1,3-benzothiazole-7-carboxamide], the GI50 in assay [1] fell in the range of 1 to 10 µM. Besides, the AC50 with MYB mRNA [2] and in the assay on HTT mRNA [3] was over 10 µM throughout. The IC50 in the assay with MYB mRNA [2], in the assay with HTT mRNA [3], in the assay with MYB mRNA [4] and in the assay on HTT mRNA [5] was over 10 µM in each case.
In the case of `COc1c(NC(=O)c2c(F)cc(N3CCC(NC4CC4)CC3)c3nc(C)sc23)cn2cc(C)nc2c1F` [Compound 663, 4-[4-(cyclopropylamino)-1-piperidyl]-6-fluoro-N-(8-fluoro-7-methoxy-2-methyl-imidazo[1,2-a]-pyridin-6-yl)-2-methyl-1,3-benzothiazole-7-carboxamide], the GI50 in assay [1] is 1 to 10 µM. Moreover, the AC50 in the assay with MYB mRNA [2] and in the assay with HTT mRNA [3] was 1 to 10 µM in each case. Moreover, the IC50 with MYB mRNA [2], with HTT mRNA [3], in the assay on MYB mRNA [4] and in the assay on HTT mRNA [5] was 1 to 10 µM each time.
As for `COc1nc(NC(=O)c2c(F)cc(N3CCC(NC4CC4)CC3)c3nc(C)sc23)cn2cc(C)nc12` [Compound 664, 4-[4-(cyclopropylamino)-1-piperidyl]-6-fluoro-N-(8-methoxy-2-methylimidazo-[1,2-a]pyrazin-6-yl)-2-methyl-1,3-benzothiazole-7-carboxamide], the GI50 in assay [1] is 1 to 10 µM. The AC50 with MYB mRNA [2] and in the assay with HTT mRNA [3] was 1 to 10 µM each time. In addition, the IC50 in the assay on MYB mRNA [2], in the assay on HTT mRNA [3], in the assay on MYB mRNA [4] and in the assay on HTT mRNA [5] was 1 to 10 µM in each case.
With `Cc1cn2nc(NC(=O)c3c(F)cc(N4CCC(NC5CC5)CC4)c4nc(C)sc34)cc(C)c2n1` [Compound 665, 4-[4-(cyclopropyl-amino)-1-piperidyl]-N-(2,8-dimethylimidazo[1,2-b]-pyridazin-6-yl)-6-fluoro-2-methyl-1,3-benzothiazole-7-carboxamide], the GI50 in assay [1] was in the range of 0.1 to 1 µM. The AC50 with MYB mRNA [2] and in the assay with HTT mRNA [3] was 0.1 to 1 µM throughout. Besides, the IC50 with MYB mRNA [2], in the assay on HTT mRNA [3], in the assay with MYB mRNA [4] and in the assay with HTT mRNA [5] was 0.1 to 1 µM each time.
In the case of `COc1nc2c(N3CCC(NC4CC4)CC3)ccc(C(=O)Nc3cc(F)c4nc(C)cn4c3)c2o1` [Compound 666, 4-[4-(cyclopropylamino)-1-piperidyl]-N-(8-fluoro-2-methyl-imidazo[1,2-a]-pyridin-6-yl)-2-methoxy-1,3-benzoxazole-7-carboxamide], in assay [1], the GI50 lay within 1 to 10 µM. The AC50 with MYB mRNA [2] was 0.1 to 1 µM; in the assay with HTT mRNA [3] it was 1 to 10 µM. The IC50 with MYB mRNA [2] lay in the range of 0.1 to 1 µM; in the assay with HTT mRNA [3], 1 to 10 µM; in the assay with MYB mRNA [4] it was 0.1 to 1 µM; in the assay with HTT mRNA [5], 1 to 10 µM.
For the compound `COc1nc2c(C(=O)Nc3cn4cc(C)nc(C)c4n3)ccc(N3CCC(NC4CC4)CC3)c2s1` [Compound 667, 7-(4-(cyclopropylamino)-piperidin-1-yl)-N-(6,8-dimethylimidazo[1,2-a]pyrazin-2-yl)-2-methoxy-benzo[d]thiazole-4-carboxamide 2,2,2-trifluoroacetate], in assay [1], the GI50 lay in the range of 1 to 10 µM. The results for the AC50 with MYB mRNA [2] and in the assay with HTT mRNA [3] were 1 to 10 µM and over 10 µM, respectively. Also, the IC50 with MYB mRNA [2], in the assay on HTT mRNA [3], in the assay on MYB mRNA [4] and with HTT mRNA [5] was over 10 µM each time.
As to `COc1nc2c(C(=O)Nc3cc4cn(C)nc4cc3OC)ccc(N3CCC(NC4CC4)CC3)c2s1` [Compound 668, 7-(4-(cyclopropylamino)-piperidin-1-yl)-2-methoxy-N-(6-methoxy-2-methyl-2H-indazol-5-yl)benzo[d]-thiazole-4-carboxamide 2,2,2-trifluoroacetate], in assay [1], the GI50 was in the range of 0.1 to 1 µM. In addition, the values for the AC50 in the assay with MYB mRNA [2] and in the assay on HTT mRNA [3] were 0.1 to 1 µM and 1 to 10 µM, respectively. Besides, the IC50 in the assay with MYB mRNA [2] lay in the range of 0.1 to 1 µM; in the assay with HTT mRNA [3], 1 to 10 µM; in the assay on MYB mRNA [4], 0.1 to 1 µM; with HTT mRNA [5], 1 to 10 µM.
With `CCNC1CCN(c2ccc(C(=O)Nc3cc4cn(C)nc4cc3OC)c3nc(OC)sc23)CC1` [Compound 669, 7-[4-(ethylamino)-1-piperidyl]-2-methoxy-N-(6-methoxy-2-methyl-indazol-5-yl)-1,3-benzo-thiazole-4-carboxamide], the 50% growth inhibitory concentration (GI50) in assay [1] was in the range of 1 to 10 µM. The AC50 lay in the range of 0.1 to 1 µM with MYB mRNA [2] and 1 to 10 µM with HTT mRNA [3]. The IC50 in the assay with MYB mRNA [2], in the assay on HTT mRNA [3], in the assay with MYB mRNA [4] and in the assay with HTT mRNA [5] was 1 to 10 µM in each case.
